Data set [1] in a line: method code SF, from DOI: 10.1002/jps.2600830715, PMID: 7965680.
Data set [2] in a line: method code SF-RC, from DOI: 10.1016/j.bmc.2013.10.046, PMID: 24262882. Conditions: pH 7.4.
Data set [3] in a line: method code SF-HPLC, from DOI: 10.1023/a:1015828802490, PMID: 2308896.
Data set [4] in a line: method code SF-AS, from Kourounakis, P.; Chilliard, N. (1983). Ionization constants and partition coefficients of some 1,1-diphenyl-1-alkoxy-3-dialkylamino-2-propanones with analgesic activity. Pharmazie, 38(6)388-389. To be noted: pH 7.4.
Data set [5] in a line: method code SF-AS, from DOI: 10.1002/chin.199708138, PMID: 8917646. To be noted: pH 7.4.
Assay in data set [6]: not given
The source holds these as a separate data set.

Data set [7] can be described thus: method code SF-AS, from DOI: 10.1021/jm9800301, PMID: 9748357. Conditions: pH 7.4.
A short description of data set [8]: method code SF-HPLC, from DOI: 10.1016/j.jpba.2011.06.023, PMID: 21782368. Conditions: pH 7.4.
Assay in data set [9]: not given
This is another data set of the same source.

Data set [10] in a line: method code SF-AS, from DOI: 10.1002/chin.199416148, PMID: 8117185.
A short description of data set [11]: method code …, from Wiggins, H.; Karcher, A.; Michael Wilson, J.; Robb, I. (2008). Determining Octanol/Water Partitioning Coefficients for Industrial Surfactants. Proc. 15th Annual International Petroleum & Biofuels ….
Data set [12] is described as follows: method code SF-HPLC, from DOI: 10.1039/p29890001935.
Data set [13] can be described thus: method code SF-AS, from DOI: 10.1002/jps.2600790421, PMID: 2352153.
Data set [14] in a line: method code SF-AS, from DOI: 10.1248/cpb.42.1084, PMID: 8069960.
Data set [15] in a line: method code SF-AS, from M. Kuchar, J. Tomkova, V. Rejholec, & O. Roubinek. (1992). Some problems of the chromatographic evaluation of lipophicity. In Kuchar, M. (Ed.) QSAR in Design of Bioactive Compounds (pp. 65-81). Prous …. Conditions: pH 3.4.
Data set [16] is described as follows: method code SF, from DOI: 10.1016/s0021-9673(03)00534-x, PMID: 12800922. Conditions: pH 11.0.
A short description of data set [17]: method code SF, from DOI: 10.1016/s0960-894x(04)00268-9, PMID: 15109667. Conditions: pH 7.4.
Assay in data set [18]: not given
The source holds these as a separate data set.

Assay in data set [19]: not given
This is another data set of the same source.

Data set [20] is described as follows: method code SF-HPLC, from PMID: 2780588.
Assay in data set [21]: not given
The source holds these as a separate data set.

Assay in data set [22]: not given
This is another data set of the same source.

Data set [23] in a line: method code SF-AS, from DOI: 10.1016/s0026-895x(25)13808-x, PMID: 93689.
Data set [24] is described as follows: method code SF-RC, from DOI: 10.1021/jm701375u, PMID: 18307287. Conditions: pH 7.4.
The nature of data set [25]: method code SF-AS, from DOI: 10.1006/pest.1994.1014.
Data set [26] can be described thus: method code SF-AS, from DOI: 10.1016/0223-5234(94)90120-1. Conditions: pH 7.4.
Data set [27] is described as follows: method code SF, from PMID: 8999431. To be noted: pH 7.4.
Data set [28] can be described thus: method code SF-AS, from DOI: 10.3390/molecules16097565, PMID: 21894089.

`CC(C)(O)c1cc(Cl)c(Nc2nc3ccncc3c3c(=O)[nH]ccc23)c(Cl)c1`: the logP turned out to be 1.34.
On to `CC1(C)CC(NC(=O)C(Cc2ccccc2)NC(=O)N(CCCl)N=O)CC(C)(C)N1O` (stereo not drawn), for which the logP in data set [1] turned out to be 2.3.
Molecule `O=C(OCCF)C1C(c2ccc(I)cc2)C2CCC1N2CC=CI` (stereo not drawn) had a logD in data set [2] of 5.39.
Molecule `COc1c(C)c2c(c(OC(C)=O)c1C/C=C(\C)CCC(=O)OCC1COC(C)(C)O1)C(=O)OC2` (stereo not drawn) gave a logD in [3] (pH 7.4) of 2.87.
Consider `COC(C(=O)N(C)C)(c1ccccc1)c1ccccc1`, for which, in [4], the logD turned out to be 0.78.
In the case of `COC(=O)C1=C(C)NC(C)=C(C(=O)OCCOC(=O)C2=CN(C)C=CC2)C1c1cccc(Cl)c1Cl` (stereo not drawn), in data set [5], the logD amounted to 2.56.
Molecule `O=C1CN=C(c2ccccc2F)c2cc(Cl)ccc2N1CC(F)(F)F` came in with a logP in data set [6] of 3.36.
On to `O=C(NCc1ccc(F)cc1)C(=O)c1c[nH]c2ccccc12`, for which, in data set [7], the logD came to 2.88.
`CCCOC(=O)CC(CNC(=O)OC(C)(C)C)c1ccc(Cl)cc1` (stereo not drawn): the logD in data set [8] was determined as 3.
Regarding `CC(C)OC(=O)CC(CNC(=O)OC(C)(C)C)c1ccc(Cl)cc1` (stereo not drawn), the logD in [8] was determined as 3.4.
In turn, `COC(=O)C1=C(C)NC(C)=C(C(=O)OCCO)C1c1cccc(Cl)c1Cl` (stereo not drawn) gave a logD in data set [5] of 2.37.
In [9], `COC(=O)C(C)(C)Oc1ccc(C(=O)c2ccc(Cl)cc2)cc1` gave a logP of 4.27.
The molecule `O=C(CCN1CCOCC1)CN1C(=O)C2CC=CCC2C1=O` (stereo not drawn) had a logP in [10] of 0.56.
Molecule `COC(=O)C1C(c2ccc(I)cc2)C2CCC1N2CC=CI` (stereo not drawn) displayed a logD in [2] of 5.29.
Consider `O=C(CCN1CCCC1)CN1C(=O)C2CC=CCC2C1=O` (stereo not drawn), for which the logP in data set [10] worked out at 1.11.
Consider `Fc1ccccc1C1=NCC(=S)N(CC(F)(F)F)c2ccc(Cl)cc21`, for which the logP in [6] came out at 4.03.
For `CCCCCCCCOCCOCCOCCOCCO`, the logP in data set [11] is 2.68.
The molecule `Fc1ccccc1C1OCC2ON=C(c3ccccc3)C2CO1` (stereo not drawn) returned a logP in [12] of 2.35.
In the case of `CC(C)[C@H](NC(=O)[C@H](c1ccccc1)N(CCCl)N=O)C(=O)NC(=O)NCCCl`, in data set [13], the logP was 3.32.
As to `COc1ccc2[nH]c3c4ccc(Cl)cc4ncc3c2c1`, in [14], the logP is 4.49.
Take `CC(CC(=O)O)c1ccc(OCc2ccccc2)cc1` (stereo not drawn): in [15], the logD was 3.58.
`CC(C)(C)NCC(O)COc1cccc2c1CCC(=O)N2` (stereo not drawn) had a logD in data set [16] of 1.49.
Turning to `CC(=O)OC(CC#CCS(=O)(=O)c1ccc([N+](=O)[O-])cc1)Cn1ccnc1[N+](=O)[O-]` (stereo not drawn), the logD in data set [17] is 1.18.
As to `CNC12CCCCC1CC(C)c1ccccc12` (stereo not drawn), the logP in data set [18] is 3.96.
Regarding `CN(C)CC(=O)C(Oc1ccccc1)(c1ccccc1)c1ccccc1`, the logD in data set [4] was found to be 1.57.
On to `CCc1cccc(N(C)C(=N)Nc2cc(SC)ccc2Cl)c1`, for which, in data set [19], the logP was 3.
Molecule `CCCCCCCCNC(=O)Cc1ccc(O)c(OC)c1` gave a logP in data set [20] of 2.94.
As to `CC(=O)CC(c1ccccc1)c1c(O)c2ccccc2oc1=O` (stereo not drawn), in [21], the logP stood at 2.4.
In the case of `CC(=O)[C@H]1CC[C@H]2[C@@H]3CC=C4C[C@@H](O)CC[C@]4(C)[C@H]3CC[C@]12C`, in data set [22], the log partition coefficient (logP) was found to be 4.22.
`CC(C)(C)[C@]1(O)CCN2CC3c4ccccc4CCc4cccc(c43)C2C1` (stereo partly drawn) had a logP in data set [23] of 4.35.
Take `CC(=O)OC(CC#CCS(=O)(=O)c1ccccc1)Cn1ccnc1[N+](=O)[O-]` (stereo not drawn): in data set [17], the pH-dependent lipophilicity (logD) was 1.35.
Molecule `Brc1cccc(N2CCN(Cc3cc4ccccn4n3)CC2)n1` gave a logD in data set [24] of 1.78.
In [19], `CSc1cccc(N(C)C(=N)Nc2cc(SC)ccc2Cl)c1` showed a logP of 2.68.
`Cc1ccccc1C(=O)NN(C(=O)c1ccccc1Cl)C(C)(C)C`: the logP in data set [25] was determined as 2.91.
Take `C[C@]12CC[C@@H]3c4ccc(O)cc4CC[C@H]3[C@@H]1C[C@@H](O)[C@@H]2O`: the logP in data set [22] turned out to be 2.45.
Turning to `CN1CCN(C2=Nc3cc(Cl)ccc3Nc3ccccc32)CC1`, the logP in [23] turned out to be 3.32.
The molecule `CC(C)[C@H](NC(=O)[C@H](Cc1ccccc1)N(CCCl)N=O)C(=O)NC(=O)NCCCl` came in with a logP in [13] of 3.46.
In turn, `CCCCCCCCOC(=O)Cc1ccc(O)c(OC)c1` came in with a logP in [20] of 4.04.
Regarding `NS(=O)(=O)c1cc(Cl)c(Nc2nc3ccncc3c3c(=O)[nH]ccc23)c(Cl)c1`, the logP was 1.17.
Consider `CC(C)C(NC(=O)N(CCCl)N=O)C(=O)NC1CC(C)(C)N(O)C(C)(C)C1` (stereo not drawn), for which, in data set [1], the logP was 2.09.
In [15], `O=C(O)CCc1ccc(OCc2ccccc2)cc1` yielded a logD of 3.31.
Turning to `S=C1SCN(Cc2ccccc2)CN1Cc1ccccc1`, the logD in [26] worked out at 4.9.
Consider `COc1c(C)c2c(c(O)c1C/C=C(\C)CCC(=O)O)C(=O)OC2`, for which, in data set [3] (pH 2.0), the logD was 2.76.
As to `CC1(C)Oc2ccc(C#N)cc2C(N2CCCC2=O)C1O` (stereo not drawn), the logP in data set [21] turned out to be 2.1.
As to `S=C1SCN(Cc2ccccc2)CN1CCc1ccccc1`, the logD in data set [26] is 5.
`CC(C)(C)N(NC(=O)c1ccccc1Cl)C(=O)c1ccccc1Cl` registered a logP in [25] of 2.75.
`Oc1ccccc1N1CCN(Cc2cnn3ccccc23)CC1` showed a logD in [24] of 2.15.
On to `COc1ccc(CNC(=O)C(=O)c2c[nH]c3ccc([N+](=O)[O-])cc23)cc1`, for which the logD in data set [7] amounted to 2.17.
In [27], `CCC(C)C(NC(=O)c1cn(CC)c2nc(C)ccc2c1=O)C(=O)OC` (stereo not drawn) registered a pH-dependent lipophilicity (logD) of 2.64.
On the same count and under the same terms, under `CCn1cc(C(=O)NC(C(=O)OC)C(C)C)c(=O)c2ccc(C)nc21` (stereo not drawn) stands 3.61.
Regarding `CC(C)c1ccc(N2C(=O)C(=O)N([C@H](C)c3nc4ccc(F)cc4s3)C2=O)cc1`, the logP in data set [28] worked out at 1.64.
Consider `CCO[C@@H](Cc1ccc(OC/C=C/C#Cc2ccccc2)cc1)C(=O)O`, for which the logP in data set [9] was 3.87.
`CCCCCCCCCCCCOCCOCCOCCOCCOCCOCCO`: in [11], the logP worked out at 4.81.
`COc1ccc2[nH]c3c(c2c1)CCNc1cc(Cl)ccc1-3` displayed a logP in [14] of 4.24.
`C[C@H](c1nc2ccc(F)cc2s1)N1C(=O)C(=O)N(c2ccc(Cl)cc2)C1=O` returned a logP in data set [28] of 0.41.
In turn, `CC(C)(C)NC[C@H](O)COc1ccccc1C1CCCC1` had a logD in data set [16] of 3.61.
Take `CNC12CC(CN)CCC1CCc1ccccc12` (stereo not drawn): the logP in [18] was determined as 2.
As for `Clc1ccccc1C1OCC2ON=C(c3ccccc3)C2CO1` (stereo not drawn), the logP in data set [12] was determined as 2.92.

The record behind these values is the SangsterLogP compilation.
